Data taken from paper PMC2920546, “Preclinical Pharmacology of BA-TPQ, a Novel Synthetic Iminoquinone Anticancer Agent” (Marine Drugs, 2010).

How the values were obtained:
[1] = Binding to mouse plasma proteins (micro-ultrafiltration); format: in vitro ADME; conditions: non-Swiss albino, pooled mouse plasma
Experimental: The extent of binding to mouse plasma proteins by BA-TPQ was determined using a micro-ultrafiltration system as previously described. BA-TPQ was dissolved in methanol and added to pooled mouse plasma to yield final concentrations of 0.5 μM and 5.0 μM. Control solutions were prepared in methanol to account for non-specific binding of BA-TPQ to the filter membranes. Duplicate preparations of each concentration were incubated at 37 °C for 1 h, before being placed into the sample reservoirs of Amicon Centrifree® ultrafiltration tubes (30 kDa exclusion; Millipore Corporation, Bedford, MA, USA). The filter systems were then centrifuged at 3000 g (37 °C) for 30 min or until no solution remained in the reservoir. Aliquots were taken from each filtrate and analyzed using the validated HPLC method. The concentrations of the unfiltered plasma and control preparations were also determined using the same protocol and expressed as the “total drug” (T) present, while the amounts of BA-TPQ present in the filtrates were designated as “free drug” (F). The percentage of BA-TPQ bound to plasma proteins was calculated as follows:
(1) Percent Bound=[(T-F)/T]×100

[2] = Pharmacokinetics and tissue distribution in nude mice; format: in vivo
Experimental: (§1) Female ICR/CD-1 (18–20 g) mice were purchased from Harlan Laboratories (Indianapolis, IN), and female nude mice (nu/nu; 4–6 weeks) were purchased from Frederick Cancer Research and Development Center (Frederick, MD). All animal use and care procedures were approved by the Institutional Animal Care and Use Committee (IACUC) of the University of Alabama at Birmingham. All animals were fed with commercial diet and water ad libitum and were on an alternating 12 h light/dark cycle.
(§2) CD-1 and nude mice were randomly divided into groups of three, and were dosed either intravenously (5 mg/kg) or intraperitoneally (10 mg/kg) with BA-TPQ in PEG 400:ethanol:0.9% saline (57.1%:14.3%:28.6%). Before dosing, and at 5, 15, 30, 60 min, and 2, 4, 8, and 24 h after dosing, groups of animals (three/time point) were anesthetized, and blood was collected from the retro-orbital sinus into heparinized tubes. Plasma was obtained by centrifuging the blood samples at 14,000 rpm for 15 min. BA-TPQ was then extracted from plasma and stored at −80 °C. The brain, heart, kidneys, liver, lungs, and spleen were also collected at the same time points during necropsy, blotted on Whatman No. 1 filter paper, trimmed of extraneous fat and connective tissue, weighed, and homogenized in phosphate-buffered saline. The resulting homogenates were stored at −80 °C until further processing and analysis. Urine and feces were collected for 24 hr from mice housed in metabolic cages. After collection, the cages were also washed twice with 200 μL PBS, and the washes were collected and analyzed separately. The total urine was determined as the amount from the urine plus washes 1 and 2. Feces were homogenized in PBS, then extracted using the same procedure used for tissues.
(§3) Six hundred microliters of acetonitrile was added to 200 μL of plasma, urine, cage washes (first and second), or tissue/feces homogenate in an Eppendorf tube to precipitate proteins. After centrifugation at 14,000 rpm for 10 min, the supernatant was transferred to a glass tube and evaporated to dryness using a TurboVap® LV Concentration Workstation (Caliper Lifesciences, Hopkinton, MA). The residue was reconstituted with 500 μL ethyl acetate, sonicated for 10 min, and vortexed for 10 sec. Samples were then centrifuged again and the resulting supernatant was transferred to a new glass tube and evaporated to dryness. Finally, samples were reconstituted in 100 μL mobile phase, and 50 μL was injected into the HPLC system for analysis.
(§4) The averages of the BA-TPQ concentration in plasma and tissues following intravenous and intraperitoneal administration to three animals per time point were used for pharmacokinetic analyses using a two-compartmental model and a non-compartment model, respectively. The following pharmacokinetic parameters were estimated using Phoenix WinNonlin 6.0 (Mountain View, CA): area under the concentration-time curve (AUC, h·μg/mL), half-life (T½, h), maximum concentration (Cmax, μg/mL), time of the maximum concentration (Tmax, h), and clearance (CL, mL/h/kg), as applicable. Bioavailability (X) was calculated as X= [AUCip × doseiv]/[AUCiv × doseip].

[3] = Pharmacokinetics, excretion and strain comparison stated for CD-1 and nude mice together; format: in vivo
Experimental: as §1, §2, §3, §4

[4] = female, nude (nu/nu), mouse, brain, IP 10 mg/kg
[5] = female, nude (nu/nu), mouse, brain, IV 5 mg/kg
[6] = female, nude (nu/nu), mouse, heart, IP 10 mg/kg
[7] = female, nude (nu/nu), mouse, heart, IV 5 mg/kg
[8] = female, nude (nu/nu), mouse, kidneys, IP 10 mg/kg
[9] = female, nude (nu/nu), mouse, kidneys, IV 5 mg/kg
[10] = female, nude (nu/nu), mouse, liver, IP 10 mg/kg
[11] = female, nude (nu/nu), mouse, liver, IV 5 mg/kg
[12] = female, nude (nu/nu), mouse, lungs, IP 10 mg/kg
[13] = female, nude (nu/nu), mouse, lungs, IV 5 mg/kg
[14] = female, nude (nu/nu), mouse, plasma, IP 10 mg/kg
[15] = female, nude (nu/nu), mouse, plasma, IV 5 mg/kg
[16] = female, nude (nu/nu), mouse, spleen, IP 10 mg/kg
[17] = female, nude (nu/nu), mouse, spleen, IV 5 mg/kg
[18] = IV 5 mg/kg, both strains, 24 hr collection

O=C1C(NCc2ccccc2)=CC2=NCCc3c[nH]c1c32 [BA-TPQ, 7-(benzylamino)-1,3,4,8-tetrahydropyrrolo[4,3,2-de]quinolin-8(1H)-one]
fraction unbound at 1 h ([1]; mouse, read-out: Bound to plasma proteins (overall) (converted)): ~0.3 | fraction unbound at 1 h, 0.5 μM ([1]; mouse plasma, 0.5 μM, read-out: Bound to plasma proteins (converted)): 0.37 | fraction unbound at 1 h, 5 μM ([1]; mouse plasma, 5.0 μM, read-out: Bound to plasma proteins (converted)): 0.26 | Time of greatest plasma concentration ([2]; IP 10 mg/kg): 1 h | Cl ([2]; brain, IP 10 mg/kg): 650 mL/min/kg | AUC [2, 4]: 770 ng·h/mL | Cmax [2, 4]: 90 ng/mL | Tmax [2, 4]: 60 min | half-life [2, 4]: 244 min | AUC [2, 5]: 340 ng·h/mL | Cmax [2, 5]: 620 ng/mL | clearance [2, 5]: 1730 mL/min/kg | half-life [2, 5]: 22.8 min | AUC [2, 6]: 7630 ng·h/mL | Cmax [2, 6]: 6380 ng/mL | Tmax [2, 6]: 15 min | half-life [2, 6]: 30 min | AUC [2, 7]: 6370 ng·h/mL | Cmax [2, 7]: 48800 ng/mL | clearance [2, 7]: 83.3 mL/min/kg | half-life [2, 7]: 5.4 min | AUC [2, 8]: 12600 ng·h/mL | Cmax [2, 8]: 10800 ng/mL | Tmax [2, 8]: 30 min | half-life [2, 8]: 29.4 min | AUC [2, 9]: 5480 ng·h/mL | Cmax [2, 9]: 20800 ng/mL | clearance [2, 9]: 100 mL/min/kg | half-life [2, 9]: 10.8 min | AUC [2, 10]: 2760 ng·h/mL | Cmax [2, 10]: 4560 ng/mL | Tmax [2, 10]: 4.8 min | half-life [2, 10]: 31.8 min | AUC [2, 11]: 710 ng·h/mL | Cmax [2, 11]: 2710 ng/mL | clearance [2, 11]: 817 mL/min/kg | half-life [2, 11]: 10.8 min | AUC [2, 12]: 13200 ng·h/mL | Cmax [2, 12]: 14800 ng/mL | Tmax [2, 12]: 4.8 min | half-life [2, 12]: 35.4 min | AUC [2, 13]: 9180 ng·h/mL | Cmax [2, 13]: 18400 ng/mL | clearance [2, 13]: 66.7 mL/min/kg | half-life [2, 13]: 21 min | AUC [2, 14]: 150 ng·h/mL | Cmax [2, 14]: 220 ng/mL | Tmax [2, 14]: 15 min | half-life [2, 14]: 70.2 min | bioavailability ([2]; female, nude (nu/nu), mouse, plasma, IP 10 mg/kg vs IV 5 mg/kg, read-out: Intraperitoneal bioavailability): 100% | AUC [2, 15]: 40 ng·h/mL | Cmax [2, 15]: 150 ng/mL | half-life [2, 15]: 10.2 min | AUC [2, 16]: 18300 ng·h/mL | Cmax [2, 16]: 31200 ng/mL | Tmax [2, 16]: 15 min | half-life [2, 16]: 99 min | AUC [2, 17]: 4980 ng·h/mL | Cmax [2, 17]: 11000 ng/mL | clearance [2, 17]: 117 mL/min/kg | half-life [2, 17]: 18.6 min | Cl ([2]; heart, IP 10 mg/kg): 83 mL/min/kg | Cl ([2]; kidneys, IP 10 mg/kg): 50 mL/min/kg | Cl ([2]; liver, IP 10 mg/kg): 217 mL/min/kg | Cl ([2]; lungs, IP 10 mg/kg): 50 mL/min/kg | Cl ([2]; plasma, IP 10 mg/kg): 3920 mL/min/kg | Cl ([2]; spleen, IP 10 mg/kg): 33 mL/min/kg | Amount excreted in the feces ([3]; IP 10 mg/kg): less than 1% | Amount excreted in the urine ([3]; IP 10 mg/kg, first 24 h after dosing): less than 0.02 % of the administered dose | AUC in the brain, nude mice versus CD-1 mice ([3]; IP injection): ~ 5 fold | Accumulation in the liver, nude mice versus CD-1 mice ([3]; IP injection): ~ 18 fold | Detectability in the lungs at 24 h ([3]; IV 5 mg/kg, both CD-1 and nude mice): still detectable | Amount excreted in feces [3, 18]: less than 1 % of the administered dose | Amount excreted in the urine [3, 18]: less than 0.1 % of the administered dose | Detectability in plasma ([3]; IV 5 mg/kg, either strain of mice): no longer detectable in plasma after 2 h | Exposure of the heart (AUC), nude mice versus CD-1 mice ([3]; IV injection): approximately 6 fold | bioavailability ([3]; female, CD-1 and nude (nu/nu), mouse, plasma, ip, 10 mg/kg, mice, IP injection, read-out: Intraperitoneal bioavailability (authors' overall estimate)): ~70% | Blood-brain barrier passage (AUC in brain comparable to plasma) ([3]; mice): can cross the blood-brain barrier | Intraperitoneal bioavailability (authors' overall estimate) ([3]; mice, IP injection): > 70%
